Data: patent US6777422B2, “Substituted tetrahydroisoquinolines as C5a receptor modulators” (Neurogen Corp., priority 2002, dated 2004)

Target: T1, human C5a receptor (Homo sapiens, UniProt P21730)
T1 construct: endogenous in cells; host or cells: U937 cells differentiated with 1 mM dibutyryl cAMP
T1 sequence (P21730 1-350): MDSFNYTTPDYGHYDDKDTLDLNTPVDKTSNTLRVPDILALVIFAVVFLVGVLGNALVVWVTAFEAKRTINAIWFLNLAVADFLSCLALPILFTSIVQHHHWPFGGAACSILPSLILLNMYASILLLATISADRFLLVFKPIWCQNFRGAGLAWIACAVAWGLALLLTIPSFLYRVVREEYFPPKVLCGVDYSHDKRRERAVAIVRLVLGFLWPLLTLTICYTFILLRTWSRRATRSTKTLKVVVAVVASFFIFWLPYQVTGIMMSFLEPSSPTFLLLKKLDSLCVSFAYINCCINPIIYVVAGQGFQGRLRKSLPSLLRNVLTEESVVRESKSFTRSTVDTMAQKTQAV
Assay: C5a receptor mediated calcium mobilization assay (Example 20)
Format: cell-based
Conditions: differentiated U937 cells, read-out: Ca2+ (Ki in the standard assay of C5a receptor mediated calcium mobilization)
Procedure: Calcium Mobilization Assays
U937 cells are grown in differentiation media (1 mM dibutyryl cAMP in RPMI 1640 medium containing 10% fetal bovine serum) for 48 hrs at 37° C. then reseeded onto 96-well plates suitable for use in a FLIPR™ Plate Reader (Molecular Devices Corp., Sunnyvale Calif.). Cells are grown an additional 24 hours (to 70-90% confluence) before the assay. The cells are then washed once with Krebs Ringer solution. FLUO-3 calcium sensitive dye (Molecular Probes, Inc. Eugene, Oreg.) is added to 10 μg/mL and incubated with the cells at room temperature for 1 to 2 hours. The 96 well plates are then washed to remove excess dye. Fluorescence responses, measured by excitation at 480 nm and emission at 530 nm, are monitored upon the addition of human C5a to the cells to a final concentration of 0.01-30.0 nM, using the FLIPR™ device (Molecular Devices).
C. Assays for the Identification of Receptor Modulatory Agents: Antagonists and Agonists
The calcium mobilization assay described above may be readily adapted for identifying test compounds that have agonist or antagonist activity at the human C5a receptor.
For example, in order to identify antagonist compounds, differentiated U937 cells are washed and incubated with Fluo-3 dye as described above. One hour prior to measuring the fluorescence signal, a subset of the cells is incubated with 1 μM of at least one compound to be tested. The fluorescence response upon the subsequent addition of 0.3 nM (final concentration) human recombinant C5a is monitored using the FLIPR™ plate reader. Antagonist compounds elicit at least a 2-fold decrease in the fluorescence response relative to that measured in the presence of human C5a alone. Preferred antagonist compounds elicit at least a 5-fold, preferably at least a 10-fold, and more preferably at least a 20-fold decrease in the fluorescence response relative to that measured in the presence of human C5a alone.

Structure (SMILES)	Ki
Cc1cccc(C)c1C1c2ccccc2CCN1CC(=O)N(Cc1ccccc1F)C1Cc2ccccc2C1 (stereo not drawn) [Compound 56, N-(indan-2-yl)-2-[1-(2,6-dimethylphenyl)-3,4-dihydroisoquinolin-2(1H)-yl]-N-(2-fluorobenzyl)acetamide]	< 1000 nM
Cc1ccc(F)cc1C1c2ccccc2CCN1CC(=O)N(Cc1ccccc1F)C1Cc2ccccc2C1 (stereo not drawn) [Compound 57, N-(indan-2-yl)-N-(2-fluorobenzyl)-2-[1-(5-fluoro-2-methylphenyl)-3,4-dihydroisoquinolin-2(1H)-yl]acetamide]	< 1000 nM
C[C@H]1CN(CC(=O)N(Cc2ccccc2F)C2Cc3ccccc3C2)[C@@H](c2ccccc2Cl)c2ccccc21 [Compound 59, 2-[(1R,4R)-1-(2-chlorophenyl)-4-methyl-3,4-dihydroisoquinolin-2(1H)-yl]-N-(indan-2-yl)-N-(2-fluorobenzyl)acetamide]	< 1000 nM
C[C@@H](C(=O)N(Cc1ccccc1F)C1Cc2ccccc2C1)N1CCc2ccccc2[C@@H]1c1ccccc1F [Compound 60, (2S)-N-(indan-2-yl)-N-(2-fluorobenzyl)-2-[(1R)-1-(2-fluorophenyl)-3,4-dihydroisoquinolin-2(1H)-yl]propanamide]	< 1000 nM
Cc1ccc(C2c3ccccc3CCN2CC(=O)N(Cc2ccccc2F)C2Cc3ccccc3C2)cc1F (stereo not drawn) [Compound 61, N-(indan-2-yl)-N-(2-fluorobenzyl)-2-[1-(3-fluoro-4-methylphenyl)-3,4-dihydroisoquinolin-2(1H)-yl]acetamide]	< 1000 nM
O=C(CN1CCc2ccccc2C1c1cccc2cccnc12)N(Cc1ccccc1F)C1Cc2ccccc2C1 (stereo not drawn) [Compound 62, N-(indan-2-yl)-N-(2-fluorobenzyl)-2-(1-quinolin-8-yl-3,4-dihydroisoquinolin-2(1H)-yl)acetamide]	< 1000 nM
C[C@@H](C(=O)N(Cc1ccccc1F)C1Cc2ccccc2C1)N1CCc2ccccc2[C@@H]1c1cccc2ccccc12 [Compound 63, (2S)-N-(indan-2-yl)-N-(2-fluorobenzyl)-2-[(1R)-1-(1-naphthyl)-3,4-dihydroisoquinolin-2(1H)-yl]propanamide]	< 1000 nM
Cc1ccc(F)c(C2c3ccccc3CCN2CC(=O)N(Cc2ccccc2F)C2Cc3ccccc3C2)c1 (stereo not drawn) [Compound 66, N-(indan-2-yl)-N-(2-fluorobenzyl)-2-[1-(2-fluoro-5-methylphenyl)-3,4-dihydroisoquinolin-2(1H)-yl]acetamide]	< 1000 nM
Cc1cccc([C@H]2c3ccccc3CCN2[C@@H](C)C(=O)N(Cc2ccccc2F)C2Cc3ccccc3C2)c1C [Compound 67, (2S)-N-(indan-2-yl)-2-[(1R)-1-(2,3-dimethylphenyl)-3,4-dihydroisoquinolin-2(1H)-yl]-N-(2-fluorobenzyl)propanamide]	< 1000 nM
Cc1cccc([C@@H]2c3ccccc3CCN2[C@@H](C)C(=O)N(Cc2ccccc2F)C2Cc3ccccc3C2)c1C [Compound 68, (2S)-N-(indan-2-yl)-2-[(1S)-1-(2,3-dimethylphenyl)-3,4-dihydroisoquinolin-2(1H)-yl]-N-(2-fluorobenzyl)propanamide]	< 1000 nM
C[C@@H](C(=O)N(Cc1ccccc1F)C1Cc2ccccc2C1)N1CCc2ccccc2[C@@H]1c1ccccc1C(F)(F)F [Compound 69, (2S)-N-(indan-2-yl)-N-(2-fluorobenzyl)-2-[(1R)-1-[2-(trifluoromethyl)phenyl]-3,4-dihydroisoquinolin-2(1H)-yl]propanamide]	< 1000 nM
Cc1cccc(C)c1[C@H]1c2ccccc2CCN1[C@@H](C)C(=O)N(Cc1ccccc1F)C1Cc2ccccc2C1 [Compound 71, (2S)-N-(indan-2-yl)-2-[(1R)-1-(2,6-dimethylphenyl)-3,4-dihydroisoquinolin-2(1H)-yl]-N-(2-fluorobenzyl)propanamide]	< 1000 nM
O=C(CN1CCc2ccccc2C1c1cccc(F)c1F)N(Cc1ccccc1F)C1Cc2ccccc2C1 (stereo not drawn) [Compound 74, 2-[1-(2,3-difluorophenyl)-3,4-dihydroisoquinolin-2(1H)-yl]-N-(indan-2-yl)-N-(2-fluorobenzyl)acetamide]	< 1000 nM
C[C@@H](C(=O)N(Cc1ccccc1F)C1Cc2ccccc2C1)N1CCc2ccccc2[C@@H]1c1cccc2c1OCC2 [Compound 75, (2S)-2-[(1R)-1-(2,3-dihydro-1-benzofuran-7-yl)-3,4-dihydroisoquinolin-2(1H)-yl]-N-(indan-2-yl)-N-(2-fluorobenzyl)propanamide]	< 1000 nM
COC(=O)c1ccc(C2c3ccccc3CCN2CC(=O)N(Cc2ccccc2F)C2Cc3ccccc3C2)cc1 (stereo not drawn) [Compound 76, methyl 4-(2-{2-[indan-2-yl(2-fluorobenzyl)amino]-2-oxoethyl}-1,2,3,4-tetrahydroisoquinolin-1-yl)benzoate]	< 1000 nM
COc1cccc(CN(C(=O)CN2CCc3ccccc3C2c2ccccc2C)C2Cc3ccccc3C2)c1 (stereo not drawn) [Compound 79, N-(indan-2-yl)-N-(3-methoxybenzyl)-2-[1-(2-methylphenyl)-3,4-dihydroisoquinolin-2(1H)-yl]acetamide]	< 1000 nM
Cc1ccccc1C1c2ccccc2CCN1CC(=O)N(Cc1ccccc1F)c1ccccc1 (stereo not drawn) [Compound 82, N-(2-fluorobenzyl)-2-[1-(2-methylphenyl)-3,4-dihydroisoquinolin-2(1H)-yl]-N-phenylacetamide]	< 1000 nM
Cc1ccc2ccccc2c1C1c2ccccc2CCN1CC(=O)N(Cc1ccccc1F)C1Cc2ccccc2C1 (stereo not drawn) [Compound 83, N-(indan-2-yl)-N-(2-fluorobenzyl)-2-[1-(2-methyl-1-naphthyl)-3,4-dihydroisoquinolin-2(1H)-yl]acetamide]	< 1000 nM
Cc1ccc(Cl)c([C@H]2c3ccccc3CCN2[C@@H](C)C(=O)N(Cc2ccccc2F)C2Cc3ccccc3C2)c1 [Compound 84, (2S)-2-[(1R)-1-(2-chloro-5-methylphenyl)-3,4-dihydroisoquinolin-2(1H)-yl]-N-(indan-2-yl)-N-(2-fluorobenzyl)propanamide]	< 1000 nM

More lines, now with the values ahead:

Ki	Structure (SMILES)
< 1000 nM	O=C(CN1CCc2ccccc2[C@@H]1c1ccccc1F)N(Cc1ccccc1F)C1Cc2ccccc2C1 [Compound 58, N-(indan-2-yl)-N-(2-fluorobenzyl)-2-[(1R)-1-(2-fluorophenyl)-3,4-dihydroisoquinolin-2(1H)-yl]acetamide]
< 1000 nM	C[C@@H](C(=O)N(Cc1ccccc1F)C1Cc2ccccc2C1)N1CCc2ccccc2[C@@H]1c1ccccc1Cl [Compound 64, (2S)-2-[(1R)-1-(2-chlorophenyl)-3,4-dihydroisoquinolin-2(1H)-yl]-N-(indan-2-yl)-N-(2-fluorobenzyl)propanamide]
< 1000 nM	Cc1c(Cl)cccc1C1c2ccccc2CCN1CC(=O)N(Cc1ccccc1F)C1Cc2ccccc2C1 (stereo not drawn) [Compound 65, 2-[1-(3-chloro-2-methylphenyl)-3,4-dihydroisoquinolin-2(1H)-yl]-N-(indan-2-yl)-N-(2-fluorobenzyl)acetamide]
< 1000 nM	C[C@@H](C(=O)N(Cc1ccccc1F)C1Cc2ccccc2C1)N1CCc2ccccc2[C@@H]1c1ccccc1Br [Compound 70, (2S)-2-[(1R)-1-(2-bromophenyl)-3,4-dihydroisoquinolin-2(1H)-yl]-N-(indan-2-yl)-N-(2-fluorobenzyl)propanamide]
< 1000 nM	C[C@@H](C(=O)N(Cc1ccccc1)Cc1ccc(O)cc1Cl)N1CCc2ccccc2[C@@H]1c1ccccc1Br [Compound 77, (2S)-N-benzyl-2-[(1R)-1-(2-bromophenyl)-3,4-dihydroisoquinolin-2(1H)-yl]-N-(2-chloro-4-hydroxybenzyl)propanamide]
< 1000 nM	Cc1cc(C)c(C2c3ccccc3CCN2CC(=O)N(Cc2ccccc2F)C2Cc3ccccc3C2)c(C)c1 (stereo not drawn) [Compound 80, N-(indan-2-yl)-N-(2-fluorobenzyl)-2-(1-mesityl-3,4-dihydroisoquinolin-2(1H)-yl)acetamide]
< 1000 nM	O=C(CN1CCc2ccccc2C1c1c(F)cccc1F)N(Cc1ccccc1F)C1Cc2ccccc2C1 (stereo not drawn) [Compound 81, 2-[1-(2,6-difluorophenyl)-3,4-dihydroisoquinolin-2(1H)-yl]-N-(indan-2-yl)-N-(2-fluorobenzyl)acetamide]
< 1000 nM	Cc1ccc(C)c([C@H]2c3ccccc3CCN2[C@@H](C)C(=O)N(Cc2ccccc2F)C2Cc3ccccc3C2)c1 [Compound 85, (2S)-N-(indan-2-yl)-2-[(1S)-1-(2,5-dimethylphenyl)-3,4-dihydroisoquinolin-2(1H)-yl]-N-(2-fluorobenzyl)propanamide]
